Source: patent publication US6274715A, “Tricyclic erythromycin derivatives” (priority 1997, dated 2001)
Values after ≈ are worked out from the molar mass of the structure shown.

How the values were obtained:
Assay type in all cases: cell-based
EN[…] ATCC 8043 = test: In vitro antibacterial activity, MIC, BHI agar dilution; conditions: E. faecium ATCC 8043, unit assumed
In short: (§1)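 MIC was read visually as the lowest drug level with no growth, a slight haze or sparsely isolated colonies relative to a compound-free growth control. Organisms were spotted at 1:100 dilution (1:10 for slow-growing strains) onto Brain Heart Infusion agar containing serial compound dilutions and incubated 20 to 24 hours at 35-37° C.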

M[…] ATCC 4698 = test: as above; conditions: M. luteus ATCC 4698, unit assumed
In short: as §1

M[…] ATCC 9341 = test: as above; conditions: M. luteus ATCC 9341, unit assumed
In short: as §1

STR[…] 508 = test: as above; conditions: S. agalactiae CMX 508, unit assumed
In short: as §1

[1] = test system: STAPHYLOCOCCUS EPIDERMIDIS 3519; conditions: S. epidermidis 3519; BHI agar; unit assumed
[2] = test system: STAPHYLOCOCCUS AUREUS A5177; test: In vitro antibacterial activity, MIC, BHI agar dilution; conditions: S. aureus A5177, unit assumed
[3] = test system: PSEUDOMONAS AERUGINOSA 5007; test: as above; conditions: P. aeruginosa 5007, unit assumed
ESCHERICHIA COLI KNK 437 = conditions: E. coli KNK 437; BHI agar; unit assumed
PSEUDOMONAS CEPACIA 296I = test: In vitro antibacterial activity, MIC, BHI agar dilution; conditions: P. cepacia 296I, unit assumed
ESCHERICHIA COLI H560 = test: as above; conditions: E. coli H560, unit assumed
[4] = test system: STAPHYLOCOCCUS AUREUS A-5278; test: as above; conditions: S. aureus A-5278, unit assumed
[5] = test system: STAPHYLOCOCCUS AUREUS CMX 553; test: as above; conditions: S. aureus CMX 553, unit assumed
[6] = test system: PSEUDOMONAS AERUGINOSA K799/WT; test: as above; conditions: P. aeruginosa K799/WT, unit assumed
[7] = test system: STAPHYLOCOCCUS AUREUS NCTC10649M; test: as above; conditions: S. aureus NCTC10649M, unit assumed
[8] = test system: PSEUDOMONAS AERUGINOSA BMH10; test: as above; conditions: P. aeruginosa BMH10, unit assumed
[9] = test system: KLEBSIELLA PNEUMONIAE ATCC 8045; test: as above; conditions: K. pneumoniae ATCC 8045, unit assumed
[10] = test system: PSEUDOMONAS AERUGINOSA DPHD-2862; test: as above; conditions: P. aeruginosa DPHD-2862, unit assumed
[11] = test system: ACINETOBACTER CALCOACETICUS CMX 669; test: as above; conditions: A. calcoaceticus CMX 669, unit assumed
[12] = test system: STREPTOCOCCUS PYOGENES 930; test: as above; conditions: S. pyogenes 930, unit assumed
[13] = test system: ENTEROBACTER AEROGENES ATCC 13048; test: as above; conditions: E. aerogenes ATCC 13048, unit assumed
ESCHERICHIA COLI SS = test: as above; conditions: E. coli SS, unit assumed
[14] = test system: STAPHYLOCOCCUS AUREUS 1775; test: as above; conditions: S. aureus 1775, unit assumed
CANDIDA ALBICANS CCH 442 = test: as above; conditions: C. albicans CCH 442, unit assumed
[15] = test system: STREPTOCOCCUS PYOGENES PIU 2548; test: as above; conditions: S. pyogenes PIU 2548, unit assumed
[16] = test system: PSEUDOMONAS AERUGINOSA DPHD-5263; test: as above; conditions: P. aeruginosa DPHD-5263, unit assumed
[17] = test system: STAPHYLOCOCCUS AUREUS ATCC 6538P; test: as above; conditions: S. aureus ATCC 6538P, 35-37° C., 20 to 24 hours, unit assumed
[18] = test system: STREPTOCOCCUS PYOGENES EES61; test: as above; conditions: S. pyogenes EES61, unit assumed
ESCHERICHIA COLI JUHL = conditions: E. coli JUHL; BHI agar; unit assumed
ESCHERICHIA COLI DC-2 = test: In vitro antibacterial activity, MIC, BHI agar dilution; conditions: E. coli DC-2, unit assumed
[19] = test system: MYCOBACTERIUM SMEGMATIS ATCC 114; test: as above; conditions: M. smegmatis ATCC 114, unit assumed
[20] = test system: PSEUDOMONAS AERUGINOSA K799/61; test: as above; conditions: P. aeruginosa K799/61, unit assumed
[21] = test system: STAPHYLOCOCCUS AUREUS CMX 642A; test: as above; conditions: S. aureus CMX 642A, unit assumed
[22] = test system: STREPTOCOCCUS BOVIS A-5169; test: as above; conditions: S. bovis A-5169, unit assumed
[23] = test system: PROVIDENCIA STUARTII CMX 640; conditions: P. stuartii CMX 640; BHI agar; unit assumed

SMILES	MIC (EN[…] ATCC 8043)	MIC (M[…] ATCC 4698)	MIC (M[…] ATCC 9341)	MIC (STR[…] 508)	MIC [1]	MIC [2]	MIC [3]	MIC (ESCHERICHIA COLI KNK 437)	MIC (PSEUDOMONAS CEPACIA 296I)	MIC (ESCHERICHIA COLI H560)	MIC [4]	MIC [5]	MIC [6]	MIC [7]	MIC [8]	MIC [9]	MIC [10]	MIC [11]	MIC [12]	MIC [13]	further results
CC[C@H]1OC(=O)[C@H](C)C(=O)[C@H](C)[C@@H](O[C@@H]2O[C@H](C)C[C@H](N(C)C)[C@H]2O)[C@](C)(OC)C[C@@H](C)C2=N[C@@H]3CCC[C@@H]3N3C(=O)O[C@@]1(C)[C@H]3[C@H]2C [Example 17]	0.2 µg/mL (≈ 0.295 µM)	0.78 µg/mL (≈ 1.15 µM)	0.1 µg/mL (≈ 0.148 µM)	0.05 µg/mL (≈ 0.0738 µM)	0.78 µg/mL (≈ 1.15 µM)	0.78 µg/mL (≈ 1.15 µM)	> 100 µg/mL	> 100 µg/mL	> 100 µg/mL	100 µg/mL (≈ 148 µM)	> 100 µg/mL	0.78 µg/mL (≈ 1.15 µM)	> 100 µg/mL	0.78 µg/mL (≈ 1.15 µM)	> 100 µg/mL	> 100 µg/mL	> 100 µg/mL	100 µg/mL (≈ 148 µM)	> 100 µg/mL	> 100 µg/mL	MIC (ESCHERICHIA COLI SS): 0.78 µg/mL (≈ 1.15 µM); MIC [14]: > 100 µg/mL; MIC (CANDIDA ALBICANS CCH 442): > 100 µg/mL; MIC [15]: 0.39 µg/mL (≈ 0.575 µM); MIC [16]: > 100 µg/mL; MIC [17]: 0.78 µg/mL (≈ 1.15 µM); MIC [18]: 0.05 µg/mL (≈ 0.0738 µM); MIC (ESCHERICHIA COLI JUHL): > 100 µg/mL; MIC (ESCHERICHIA COLI DC-2): > 100 µg/mL; MIC [19]: 12.5 µg/mL (≈ 18.4 µM); MIC [20]: 12.5 µg/mL (≈ 18.4 µM); MIC [21]: 0.78 µg/mL (≈ 1.15 µM); MIC [22]: 0.02 µg/mL (≈ 0.0295 µM); MIC [23]: > 100 µg/mL
CC[C@H]1OC(=O)[C@H](C)C(=O)[C@H](C)[C@@H](O[C@@H]2O[C@H](C)C[C@H](N(C)C)[C@H]2O)[C@](C)(OC)C[C@@H](C)C2=N[C@@H]3CN(Cc4ccc(Cl)cc4)C[C@@H]3N3C(=O)O[C@@]1(C)[C@H]3[C@H]2C [Example 24]	0.2 µg/mL (≈ 0.249 µM)	0.78 µg/mL (≈ 0.971 µM)	0.2 µg/mL (≈ 0.249 µM)	0.2 µg/mL (≈ 0.249 µM)	0.78 µg/mL (≈ 0.971 µM)	0.78 µg/mL (≈ 0.971 µM)	> 100 µg/mL	> 100 µg/mL	> 100 µg/mL	> 100 µg/mL	> 100 µg/mL	0.78 µg/mL (≈ 0.971 µM)	> 100 µg/mL	0.78 µg/mL (≈ 0.971 µM)	> 100 µg/mL	> 100 µg/mL	> 100 µg/mL	> 100 µg/mL	100 µg/mL (≈ 124 µM)	> 100 µg/mL	MIC (ESCHERICHIA COLI SS): 6.2 µg/mL (≈ 7.72 µM); MIC [14]: > 100 µg/mL; MIC (CANDIDA ALBICANS CCH 442): > 100 µg/mL; MIC [15]: 0.78 µg/mL (≈ 0.971 µM); MIC [16]: > 100 µg/mL; MIC [17]: 0.78 µg/mL (≈ 0.971 µM); MIC [18]: 0.05 µg/mL (≈ 0.0622 µM); MIC (ESCHERICHIA COLI JUHL): > 100 µg/mL; MIC (ESCHERICHIA COLI DC-2): > 100 µg/mL; MIC [19]: 1.56 µg/mL (≈ 1.94 µM); MIC [20]: 6.2 µg/mL (≈ 7.72 µM); MIC [21]: 0.78 µg/mL (≈ 0.971 µM); MIC [22]: 0.05 µg/mL (≈ 0.0622 µM); MIC [23]: > 100 µg/mL
